Assay results from the supplement of paper PMC10307832.

Legend:
Assay in all cases: relative viability (nuclei count vs DMSO), 5 days (fraction); higher = more cells survive
[1] = tested on: BEN
Method in brief: (§1)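 One day after seeding in 1536-well plates, lung cancer cell lines were dosed by pin tool. Dosing was either single-drug or a fixed anchor-drug dose plus five library-drug doses (not always all listed) in √10 steps. After 5 days, nuclei were stained in one fix-and-stain step and counted on 4× images, and relative viability is the nuclei count of treated wells over that of vehicle wells, given as the median of duplicate plates.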

[2] = tested on: EMC-BAC-2
Method in brief: as §1

[3] = tested on: H3255
Method in brief: as §1

[4] = tested on: HOP-62
Method in brief: as §1

[5] = tested on: LCLC-97TM1
Method in brief: as §1

[6] = tested on: LXF-289
Method in brief: as §1

[7] = tested on: NCI-H1563
Method in brief: as §1

[8] = tested on: NCI-H1650
Method in brief: as §1

[9] = tested on: NCI-H1915
Method in brief: as §1

[10] = tested on: NCI-H1993
Method in brief: as §1

[11] = tested on: NCI-H2009
Method in brief: as §1

[12] = tested on: NCI-H2023
Method in brief: as §1

[13] = tested on: NCI-H2085
Method in brief: as §1

[14] = tested on: NCI-H2126
Method in brief: as §1

[15] = tested on: NCI-H2347
Method in brief: as §1

[16] = tested on: NCI-H322M
Method in brief: as §1

[17] = tested on: NCI-H358
Method in brief: as §1

[18] = tested on: NCI-H647
Method in brief: as §1

[19] = tested on: NCI-H661
Method in brief: as §1

[20] = tested on: NCI-H727
Method in brief: as §1

[21] = tested on: PC-14
Method in brief: as §1

[22] = tested on: SK-LU-1
Method in brief: as §1

[23] = tested on: SW 1573
Method in brief: as §1

`Clc1ccc(Nc2nnc(Cc3ccncc3)c3ccccc23)cc1` [Vatalanib] + C[C@@H](Oc1cc(-c2cnn(C3CCNCC3)c2)cnc1N)c1c(Cl)ccc(F)c1Cl [Crizotinib] (partner 1 µM) showed a relative viability ([1]; first compound 0.04 µM) of 1.03, a relative viability ([1]; first compound 0.1265 µM) of 0.764 and a relative viability ([1]; first compound 0.4 µM) of 1.01. The relative viability ([1]; first compound 1.265 µM) was 0.858, the relative viability ([1]; first compound 4 µM) was 1.01 and the relative viability ([2]; first compound 0.04 µM) was 0.703. It also gave a relative viability ([2]; first compound 0.1265 µM) of 0.76, a relative viability ([2]; first compound 0.4 µM) of 0.75 and a relative viability ([2]; first compound 1.265 µM) of 0.752. It also gave a relative viability ([2]; first compound 4 µM) of 0.742, a relative viability ([3]; first compound 0.04 µM) of 0.986 and a relative viability ([3]; first compound 0.1265 µM) of 0.878. The relative viability ([3]; first compound 0.4 µM) was 0.718, the relative viability ([3]; first compound 1.265 µM) was 0.802 and the relative viability ([3]; first compound 4 µM) was 0.85. The relative viability ([4]; first compound 0.04 µM) was 0.921, the relative viability ([4]; first compound 0.4 µM) was 0.948 and the relative viability ([4]; first compound 1.265 µM) was 0.911. For the same compound, the relative viability ([4]; first compound 4 µM) was 0.904, the relative viability ([5]; first compound 0.04 µM) was 0.308 and the relative viability ([5]; first compound 0.1265 µM) was 0.312. The relative viability ([5]; first compound 0.4 µM) was 0.447, the relative viability ([5]; first compound 1.265 µM) was 0.386 and the relative viability ([5]; first compound 4 µM) was 0.365. The relative viability ([6]; first compound 0.04 µM) was 0.665, the relative viability ([6]; first compound 0.1265 µM) was 0.743 and the relative viability ([6]; first compound 0.4 µM) was 0.807. For the same compound, the relative viability ([6]; first compound 1.265 µM) was 0.717, the relative viability ([6]; first compound 4 µM) was 0.78 and the relative viability ([7]; first compound 0.04 µM) was 0.848. For the same compound, the relative viability ([7]; first compound 0.1265 µM) was 0.754, the relative viability ([7]; first compound 0.4 µM) was 0.961 and the relative viability ([7]; first compound 1.265 µM) was 0.818. The relative viability ([7]; first compound 4 µM) was 0.859, the relative viability ([8]; first compound 0.04 µM) was 0.933 and the relative viability ([8]; first compound 0.1265 µM) was 0.997. It also gave a relative viability ([8]; first compound 0.4 µM) of 1.06, a relative viability ([8]; first compound 1.265 µM) of 0.92 and a relative viability ([8]; first compound 4 µM) of 1.05. For the same compound, the relative viability ([9]; first compound 0.04 µM) was 0.939, the relative viability ([9]; first compound 0.1265 µM) was 0.869 and the relative viability ([9]; first compound 0.4 µM) was 0.885. The relative viability ([9]; first compound 1.265 µM) was 0.92, the relative viability ([9]; first compound 4 µM) was 0.918 and the relative viability ([10]; first compound 0.04 µM) was 0.948. The relative viability ([10]; first compound 0.1265 µM) was 0.853, the relative viability ([10]; first compound 0.4 µM) was 0.935 and the relative viability ([10]; first compound 1.265 µM) was 0.805. For the same compound, the relative viability ([10]; first compound 4 µM) was 0.846, the relative viability ([11]; first compound 0.04 µM) was 0.987 and the relative viability ([11]; first compound 0.1265 µM) was 0.478. It also gave a relative viability ([11]; first compound 0.4 µM) of 1.12, a relative viability ([11]; first compound 1.265 µM) of 1 and a relative viability ([11]; first compound 4 µM) of 0.977. The relative viability ([12]; first compound 0.04 µM) was 0.571, the relative viability ([12]; first compound 0.1265 µM) was 0.667 and the relative viability ([12]; first compound 0.4 µM) was 0.698. It also gave a relative viability ([12]; first compound 1.265 µM) of 0.605, a relative viability ([12]; first compound 4 µM) of 0.559 and a relative viability ([13]; first compound 0.04 µM) of 0.754. The relative viability ([13]; first compound 0.1265 µM) was 0.779, the relative viability ([13]; first compound 0.4 µM) was 1.04 and the relative viability ([13]; first compound 1.265 µM) was 0.787. It also gave a relative viability ([13]; first compound 4 µM) of 0.888, a relative viability ([14]; first compound 0.04 µM) of 0.977 and a relative viability ([14]; first compound 0.1265 µM) of 1.03. For the same compound, the relative viability ([14]; first compound 0.4 µM) was 1.05, the relative viability ([14]; first compound 1.265 µM) was 1.07 and the relative viability ([14]; first compound 4 µM) was 0.992. For the same compound, the relative viability ([15]; first compound 0.04 µM) was 0.642, the relative viability ([15]; first compound 0.1265 µM) was 0.69 and the relative viability ([15]; first compound 0.4 µM) was 0.654. It also gave a relative viability ([15]; first compound 1.265 µM) of 0.817, a relative viability ([15]; first compound 4 µM) of 0.732 and a relative viability ([16]; first compound 0.04 µM) of 1.02. For the same compound, the relative viability ([16]; first compound 0.1265 µM) was 0.891, the relative viability ([16]; first compound 0.4 µM) was 0.958 and the relative viability ([16]; first compound 1.265 µM) was 0.858. For the same compound, the relative viability ([16]; first compound 4 µM) was 0.939, the relative viability ([17]; first compound 0.04 µM) was 0.641 and the relative viability ([17]; first compound 0.1265 µM) was 0.522. The relative viability ([17]; first compound 0.4 µM) was 0.8, the relative viability ([17]; first compound 1.265 µM) was 0.585 and the relative viability ([17]; first compound 4 µM) was 0.602. For the same compound, the relative viability ([18]; first compound 0.04 µM) was 0.92, the relative viability ([18]; first compound 0.1265 µM) was 1.07 and the relative viability ([18]; first compound 0.4 µM) was 1.31. For the same compound, the relative viability ([18]; first compound 1.265 µM) was 0.977, the relative viability ([18]; first compound 4 µM) was 0.918 and the relative viability ([19]; first compound 0.04 µM) was 1.03. It also gave a relative viability ([19]; first compound 0.4 µM) of 0.986, a relative viability ([19]; first compound 1.265 µM) of 0.885 and a relative viability ([19]; first compound 4 µM) of 0.872. It also gave a relative viability ([20]; first compound 0.04 µM) of 0.689, a relative viability ([20]; first compound 0.1265 µM) of 0.603 and a relative viability ([20]; first compound 0.4 µM) of 0.992. For the same compound, the relative viability ([20]; first compound 1.265 µM) was 0.693, the relative viability ([20]; first compound 4 µM) was 0.654 and the relative viability ([21]; first compound 0.04 µM) was 0.976. It also gave a relative viability ([21]; first compound 0.1265 µM) of 0.916, a relative viability ([21]; first compound 0.4 µM) of 0.956 and a relative viability ([21]; first compound 1.265 µM) of 0.825. The relative viability ([21]; first compound 4 µM) was 0.865, the relative viability ([22]; first compound 0.04 µM) was 0.923 and the relative viability ([22]; first compound 0.1265 µM) was 0.898. It also gave a relative viability ([22]; first compound 0.4 µM) of 1.02, a relative viability ([22]; first compound 1.265 µM) of 1.06 and a relative viability ([22]; first compound 4 µM) of 0.696. The relative viability ([23]; first compound 0.04 µM) was 0.918, the relative viability ([23]; first compound 0.1265 µM) was 0.721 and the relative viability ([23]; first compound 0.4 µM) was 0.942. For the same compound, the relative viability ([23]; first compound 1.265 µM) was 0.627 and the relative viability ([23]; first compound 4 µM) was 0.817.
